Laboratory results: ChEMBL document CHEMBL1155966, “Efficient synthesis of (+/-)-parasitenone, a novel inhibitor of NF-kappaB” (Bioorg Med Chem Lett, 2009)
Calls of active or inactive are those of the source. The rule behind the calls is not given here.

Columns and labels:
[1] = test system: RAW264.7; assay: Antiinflammatory activity in mouse RAW264.7 cells assessed as inhibition of LPS-stimulated nitric oxide production at 10 ug/ml treated for 1 hr before LPS challenge measured after 24 hrs by Griess reagent method; type: functional, cell-based
[2] = test system: RAW264.7; assay: Inhibition of NF-kappaB transcriptional activity in LPS-stimulated mouse RAW264.7 cells treated for 1 hr before LPS challenge measured after 6 hrs by luciferase reporter gene assay; type: cell-based
[3] = test system: Radical scavenging activity; assay: Antioxidant activity assessed as DPPH radical scavenging activity; type: functional
[4] = Antioxidant activity assessed as peroxynitrite radical scavenging activity; type: functional
[5] = test system: RAW264.7; assay: Cytotoxicity against mouse RAW264.7 cells assessed as reduction of cell viability at 30 ug/ml after 48 hrs by trypan blue exclusion assay; type: cell-based; conditions: raw264.7, 48 h
[6] = test system: RAW264.7; assay: Growth inhibition of mouse RAW264.7 cells at 10 ug/ml after 48 hrs by trypan blue exclusion assay; type: cell-based; conditions: raw264.7, 48 h
[7] = test system: RAW264.7; assay: Antiinflammatory activity in mouse RAW264.7 cells assessed as inhibition of LPS-stimulated nitric oxide production treated for 1 hr before LPS challenge measured after 24 hrs by Griess reagent method; type: functional, cell-based
[8] = test system: RAW264.7; assay: Antiinflammatory activity in mouse RAW264.7 cells assessed as inhibition of LPS-stimulated iNOS expression treated for 1 hr before LPS challenge measured after 24 hrs by immunoblotting; type: functional, cell-based

Compound | Activity [1] | Activity [2] | IC50 [3] [µM] | IC50 [4] [µM] | Activity [5] | Activity [6] | Activity [7] | Activity [8]
O=C(O)c1ccccc1O | inactive | – | – | – | – | – | – | –
O=C(NC1=CC(=O)[C@H]2O[C@H]2[C@H]1O)c1ccccc1O [DEHYDROXYMETHYLEPOXYQUINOMICIN] | – | Active | 57 | 52.6 | – | – | – | –
O=C1C=C(CO)[C@H](O)[C@@H]2O[C@H]12 [PARASITENONE] | Active | Active | – | – | Active | Active | Dose-dependent effect | Dose-dependent effect
